One test deals with hERG-receptor (Homo sapiens (Human), UniProt Q12809). Nature of the test: HERGBD: inhibition of specific 3H-Dofetilide binding to the hERG-receptor. The following applies: HEK cell membranes with human ERG, Hill-plot 2-parameter-model. How it is done: Inhibition of Specific Binding to the hERG-Receptor (HERGBD)
A HEK cell line with stable transfected human ERG receptor was used for the assay. The cells were grown adherently and maintained in DULBECCOS' MEM medium with 10% FBS, 1% non-essential amino acids, 1% Penicillin/Streptomycin and 400 μg/ml G418 (Calbiochem).
For binding assays and membrane preparations the cell culture medium was removed, cells were washed with PBS. Crude membranes for radioligand binding experiments were prepared by scraping the cells off the dishes in ice cold 20 mM HEPES/0.1 mM KCl/pH 7.2. The cell suspension was homogenized on ice (Ultra turrax, 3×20 sec.) and the homogenate was spun for 10 min (1° C., 1000 g, OPTIMA, SW28, 2800 U/min). The supernatant was than centrifuged for 40 min at 100000 g (1° C., OPTIMA, SW28, 23000 U/min). The membrane pellet was resuspended in 20 mM HEPES/0.1 mM KCl/pH 7.2, frozen and stored at −80° C.
After thawing on the day of the assay, the membrane suspension was diluted further with 20 mM HEPES/0.1 mM KCl/pH 7.2.
The incubation mixture of 200 μl contained 1.5 nmol/l 3H-Dofetilide, optimized amount of membrane preparation, 20 mM HEPES/0.1 mM KCl/(pH 7.2) and inhibitor in 1% DMSO. Nonspecific binding was estimated in the presence of […] Dofetilide. The samples were incubated for 90 min. at RT.
Binding was terminated by filtration of the incubated membrane preparations using Filtermat B (Pharmacia, Uppsala Sweden) and a Micro Cell Harvester (Skatron, Lier, Norway). The Filtermat B had been presoaked with 1% polyethylenimine and carefully washed with 0.05 M Tris/HCl-buffer pH=7.7 after the filtration to separate free and bound radioactivity. The filters were counted in a scintillation counter (Betaplate 1205, Berthold, Wildbad, Germany) in order to determine the specific binding of [^3H]-Dofetilide.
The optimal amount of membrane preparation in the assay was determined and optimized for each membrane preparation separately in front of using the membranes in compound testing.
For pipetting of the incubation mixture we routinely use the robot Biomek2000 (Fa. Beckman).

In another test the target is rat NR1/NR2B receptor (Rattus norvegicus (Rat), UniProt P35439+Q00960). Nature of the test: RRNR2BB: inhibition of specific binding to the rat NR1/NR2B receptor. The following applies: [3H]-Ifenprodil binding, rat brain membranes, Hill-plot 2-parameter-model. On the procedure: RRNR2BB—Inhibition of Specific Binding to the Rat NR1/NR2B Receptor
Male Wistar rats (180 to 200 g) were killed by suffocation in a CO2 chamber for two minutes. Whole brains without cerebellum were removed and dissected on ice, placed into closed vials and stored at −70° C.
Membrane fractions were prepared and tested using standard techniques. At the time of the assay, 1 g of the brains were placed into 25 ml of 50 mM Tris/10 mM EDTA buffer, pH=7.1, (25 vol. per g of original tissue) and was homogenized for 30 sec at 20000 U/min with an Ultraturrax T25 (Jahnke & Kunkel, IKA-Labortechnik, Staufen, Germany). The homogenate was centrifuged at 4° C. for 10 min at 48000 g (OPTIMA L-70, Beckman, Palo Alto, Calif. 94304, USA). The supernatant was discarded and the pellet was homogenized on ice for 30 sec at 20000 U/min with an Ultraturrax and again centrifuged at 48000 g for 30 minutes at 4° C. The resultant pellet was resuspended in 25 ml of 50 mM Tris/10 mM EDTA buffer, homogenized for 30 sec with an Ultraturrax, aliquoted, frozen at −70° C. and stored until use
After thawing on the day of the assay, a 5 ml membrane aliquote was centrifuged at 48000 g for 30 min at 4° C. The pellet was resuspended in 5 ml of 5 mM Tris/1 mM EDTA buffer, pH=7.4, homogenized for 30 sec at 20000 U/min with an Ultraturrax and centrifuged at 48000 g for 30 min at 4° C. This step was repeated twice. The final pellet was homogenized in 5 ml of 5 mM Tris/mM EDTA buffer at 4° C. with an Ultraturrax and used for the Ifenprodil-binding assay.
Nonspecific binding was estimated in the presence of 10 M CP101.606. The samples were incubated for 60 min. at 4° C.
Binding was terminated by filtration of the incubated membrane preparations using Filtermat B (Pharmacia, Uppsala Sweden) and a Micro Cell Harvester (Skatron, Lier, Norway). The Filtermat B had been presoaked with 1% polyethylenimine and carefully washed with […] Tris/HCl-buffer pH=7.7 after the filtration to separate free and bound radioactivity.
For pipetting of the incubation mixture the robot Biomek2000 (Fa. Beckman) was used.
The IC50 values in the tables below were determined using the Hill-plot, 2-parameter-model.

IC50 data for 27 compounds are collected here from US9981950B2, “Triazoles as NR2B receptor inhibitors” (Janssen Pharmaceuticals, Inc., priority 2014, dated 2018).

Each structure is given as a SMILES string. A value given as a limit tells only on which side of the number the result lay.

hERG-receptor, sequence (Q12809 whole entry): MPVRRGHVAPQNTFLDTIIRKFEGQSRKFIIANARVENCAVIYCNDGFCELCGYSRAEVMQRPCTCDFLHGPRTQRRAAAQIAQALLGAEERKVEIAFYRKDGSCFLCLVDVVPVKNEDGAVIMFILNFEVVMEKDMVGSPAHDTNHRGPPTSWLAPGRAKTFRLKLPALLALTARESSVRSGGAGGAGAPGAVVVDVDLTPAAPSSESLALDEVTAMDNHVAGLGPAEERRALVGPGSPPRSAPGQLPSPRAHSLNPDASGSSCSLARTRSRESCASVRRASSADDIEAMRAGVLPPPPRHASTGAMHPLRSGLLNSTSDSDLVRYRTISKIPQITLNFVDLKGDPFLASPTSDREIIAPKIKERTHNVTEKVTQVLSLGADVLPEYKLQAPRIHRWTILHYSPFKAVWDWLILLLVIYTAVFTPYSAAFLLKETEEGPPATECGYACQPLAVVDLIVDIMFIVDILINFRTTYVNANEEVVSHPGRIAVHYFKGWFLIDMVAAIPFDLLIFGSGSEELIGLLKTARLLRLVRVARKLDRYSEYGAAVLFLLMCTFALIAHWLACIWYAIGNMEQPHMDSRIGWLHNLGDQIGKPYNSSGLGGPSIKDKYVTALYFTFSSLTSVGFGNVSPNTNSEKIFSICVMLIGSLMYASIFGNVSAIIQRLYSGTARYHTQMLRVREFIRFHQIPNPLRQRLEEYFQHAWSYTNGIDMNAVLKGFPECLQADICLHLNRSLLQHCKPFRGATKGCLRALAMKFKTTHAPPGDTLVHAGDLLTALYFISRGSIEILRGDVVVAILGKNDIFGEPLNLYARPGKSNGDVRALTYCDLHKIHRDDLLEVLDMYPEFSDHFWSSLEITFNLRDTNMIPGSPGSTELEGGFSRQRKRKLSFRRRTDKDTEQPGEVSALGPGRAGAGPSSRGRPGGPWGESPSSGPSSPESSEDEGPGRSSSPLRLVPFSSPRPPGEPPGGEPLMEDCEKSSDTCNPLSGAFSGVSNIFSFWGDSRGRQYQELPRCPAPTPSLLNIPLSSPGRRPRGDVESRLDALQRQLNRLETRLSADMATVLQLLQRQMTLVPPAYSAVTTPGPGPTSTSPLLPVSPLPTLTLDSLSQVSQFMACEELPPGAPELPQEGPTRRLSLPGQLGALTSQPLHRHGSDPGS
rat NR1/NR2B receptor, sequence (Q00960 27-1482, other chains not shown): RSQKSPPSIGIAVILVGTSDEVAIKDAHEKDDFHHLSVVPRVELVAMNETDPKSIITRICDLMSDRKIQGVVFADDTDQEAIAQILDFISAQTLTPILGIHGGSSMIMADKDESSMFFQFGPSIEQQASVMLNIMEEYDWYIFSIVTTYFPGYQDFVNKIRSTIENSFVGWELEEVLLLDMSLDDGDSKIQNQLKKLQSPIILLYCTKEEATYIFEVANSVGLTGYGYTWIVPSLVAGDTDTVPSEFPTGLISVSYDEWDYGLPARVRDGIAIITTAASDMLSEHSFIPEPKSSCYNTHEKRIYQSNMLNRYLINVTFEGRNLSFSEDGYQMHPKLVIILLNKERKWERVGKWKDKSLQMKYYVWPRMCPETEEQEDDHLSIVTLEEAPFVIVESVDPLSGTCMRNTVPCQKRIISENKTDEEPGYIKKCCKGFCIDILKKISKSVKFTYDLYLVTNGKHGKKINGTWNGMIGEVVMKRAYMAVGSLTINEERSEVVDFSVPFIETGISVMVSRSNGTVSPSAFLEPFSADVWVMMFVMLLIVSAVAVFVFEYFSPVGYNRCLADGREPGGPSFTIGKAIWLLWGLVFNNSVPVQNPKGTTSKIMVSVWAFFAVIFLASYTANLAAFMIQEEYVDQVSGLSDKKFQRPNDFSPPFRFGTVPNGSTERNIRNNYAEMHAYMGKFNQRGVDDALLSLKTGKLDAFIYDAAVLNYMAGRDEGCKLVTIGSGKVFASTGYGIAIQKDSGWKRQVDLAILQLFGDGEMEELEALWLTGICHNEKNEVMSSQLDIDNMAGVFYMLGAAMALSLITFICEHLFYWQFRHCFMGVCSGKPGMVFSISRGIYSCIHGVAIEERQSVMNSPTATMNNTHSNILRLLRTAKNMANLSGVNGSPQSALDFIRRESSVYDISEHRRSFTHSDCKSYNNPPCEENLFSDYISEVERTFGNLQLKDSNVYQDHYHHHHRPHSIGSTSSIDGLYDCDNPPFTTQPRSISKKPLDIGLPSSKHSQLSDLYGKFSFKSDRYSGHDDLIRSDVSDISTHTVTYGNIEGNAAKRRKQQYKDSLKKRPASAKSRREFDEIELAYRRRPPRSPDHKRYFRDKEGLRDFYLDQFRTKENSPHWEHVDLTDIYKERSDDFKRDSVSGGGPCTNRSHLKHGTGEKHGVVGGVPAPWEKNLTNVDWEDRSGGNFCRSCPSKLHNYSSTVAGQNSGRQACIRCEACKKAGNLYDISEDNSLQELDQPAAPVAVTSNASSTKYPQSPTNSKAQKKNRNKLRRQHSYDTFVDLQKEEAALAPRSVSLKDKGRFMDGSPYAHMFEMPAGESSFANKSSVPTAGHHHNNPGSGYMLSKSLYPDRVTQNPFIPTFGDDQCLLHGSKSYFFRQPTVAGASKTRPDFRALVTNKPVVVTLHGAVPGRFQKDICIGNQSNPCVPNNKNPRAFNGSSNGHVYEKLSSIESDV

Turning to `Cc1nc(C)n(Cc2cn(-c3ccc(Cl)cc3)nn2)n1` [Example 1, 1-(4-Chloro-phenyl)-4-(3,5-dimethyl-[1,2,4]triazol-1-ylmethyl)-1H-[1,2,3]triazole], the half-maximal inhibitory concentration (IC50) at hERG-receptor is 419 µM; on rat NR1/NR2B receptor it was greater than 10 µM.
In the same order, the values of `CCCc1ncnn1Cc1cn(-c2ccc(Cl)cc2)nn1` [Example 2, 1-(4-Chloro-phenyl)-4-(5-propyl-[1,2,4]triazol-1-ylmethyl)-1H-[1,2,3]triazole] are 0.032 µM and greater than 1 µM.
In the same order, the values of `CCCc1ncn(Cc2cn(-c3ccc(Cl)cc3)nn2)n1` [Example 3, 1-(4-Chloro-phenyl)-4-(3-propyl-[1,2,4]triazol-1-ylmethyl)-1H-[1,2,3]triazole] are 0.305 µM and greater than 10 µM.
With `CC(C)c1ncn(Cc2cn(-c3ccc(Cl)cc3)nn2)n1` [Example 4, 1-(4-Chloro-phenyl)-4-(3-isopropyl-[1,2,4]triazol-1-ylmethyl)-1H-[1,2,3]triazole], the half-inhibitory concentration (IC50) at rat NR1/NR2B receptor is greater than 10 µM.
`CCc1ncnn1Cc1cn(-c2ccc(Cl)cc2)nn1` [Example 5, 1-(4-Chloro-phenyl)-4-(5-ethyl-[1,2,4]triazol-1-ylmethyl)-1H-[1,2,3]triazole]: the IC50 at hERG-receptor was 194 µM; on rat NR1/NR2B receptor, greater than 10 µM.
In the same order, the values of `CCc1ncn(Cc2cn(-c3ccc(Cl)cc3)nn2)n1` [Example 6, 1-(4-Chloro-phenyl)-4-(3-ethyl-[1,2,4]triazol-1-ylmethyl)-1H-[1,2,3]triazole] are 54.9 µM and greater than 10 µM.
For the compound `CC(C)c1ncnn1Cc1cn(-c2ccc(Cl)cc2)nn1` [Example 7, 1-(4-Chloro-phenyl)-4-(5-isopropyl-[1,2,4]triazol-1-ylmethyl)-1H-[1,2,3]triazole], the half-maximal inhibitory concentration (IC50) at hERG-receptor is greater than 100 µM; on rat NR1/NR2B receptor it was greater than 10 µM.
The like results for `Cc1ncn(Cc2cn(-c3ccc(Cl)cc3)nn2)n1` [Example 9, 1-(4-Chloro-phenyl)-4-(3-methyl-[1,2,4]triazol-1-ylmethyl)-1H-[1,2,3]triazole] were, in that order, 46.9 µM and greater than 10 µM.
The like results for `Clc1ccc(-n2cc(Cn3nc(C4CC4)nc3C3CC3)nn2)cc1` [Example 10, 1-(4-Chloro-phenyl)-4-(3,5-dicyclopropyl-[1,2,4]triazol-1-ylmethyl)-1-[1,2,3]triazole] were, in that order, 0.0039 µM and greater than 10 µM.
In the same order, the values of `Clc1ccc(-n2cc(Cn3ncnc3C3CCC3)nn2)cc1` [Example 11, 1-(4-Chloro-phenyl)-4-(5-cyclobutyl-[1,2,4]triazol-1-ylmethyl)-1H-[1,2,3]triazole] are greater than 100 µM and greater than 1 µM.
As for `Clc1ccc(-n2cc(Cn3cnc(C4CCC4)n3)nn2)cc1` [Example 12, 1-(4-Chloro-phenyl)-4-(3-cyclobutyl-[1,2,4]triazol-1-ylmethyl)-1H-[1,2,3]triazole], the IC50 at hERG-receptor was 11.8 µM; on rat NR1/NR2B receptor, greater than 10 µM.
The like results for `Clc1ccc(-n2cc(Cn3cnc(C4CC4)n3)nn2)cc1` [Example 13, 1-(4-Chloro-phenyl)-4-(3-cyclopropyl-[1,2,4]triazol-1-ylmethyl)-1H-[1,2,3]triazole] were, in that order, 45.1 µM and greater than 10 µM.
The like results for `Clc1ccc(-n2cc(Cn3cnc(C4CCCC4)n3)nn2)cc1` [Example 15, 1-(4-Chloro-phenyl)-4-(3-cyclopentyl-[1,2,4]triazol-1-ylmethyl)-1H-[1,2,3]triazole] were, in that order, 87.9 µM and greater than 10 µM.
Consider `Clc1ccc(-n2cc(Cn3ncnc3C3CC3)nn2)cc1` [Example 16, 1-(4-Chloro-phenyl)-4-(5-cyclopropyl-[1,2,4]triazol-1-ylmethyl)-1H-[1,2,3]triazole], for which the values for the IC50 at hERG-receptor and at rat NR1/NR2B receptor were greater than 100 µM and greater than 10 µM, respectively.
Turning to `FC(F)(F)c1ncn(Cc2cn(-c3ccc(Cl)cc3)nn2)n1` [Example 17, 1-(4-Chloro-phenyl)-4-(3-trifluoromethyl-[1,2,4]triazol-1-ylmethyl)-1H-[1,2,3]triazole], the values for the half-maximal inhibitory concentration (IC50) on hERG-receptor and at rat NR1/NR2B receptor were 25.6 µM and greater than 10 µM, respectively.
The compound `Cc1nc(C2CCC2)nn1Cc1cn(-c2ccc(Cl)cc2)nn1` [Example 22, 1-(4-Chloro-phenyl)-4-(3-cyclobutyl-5-methyl-[1,2,4]triazol-1-ylmethyl)-1H-[1,2,3]triazole] registered an IC50 on rat NR1/NR2B receptor greater than 10 µM.
`Clc1ccc(-n2cc(Cn3ccnc3Cl)nn2)cc1` [Example 26, 4-(2-Chloro-imidazol-1-ylmethyl)-1-(4-chloro-phenyl)-1H-[1,2,3]triazole]: the IC50 on hERG-receptor was 12.1 µM.
Same read-out and setting: the figure for `CC(C)(C)c1nccn1Cc1cn(-c2ccc(Cl)cc2)nn1` [Example 30, 4-(2-tert-Butyl-imidazol-1-ylmethyl)-1-(4-chloro-phenyl)-1H-[1,2,3]triazole] is 3.58 µM; for `CCCc1nccn1Cc1cn(-c2ccc(F)c(Cl)c2)nn1` [Example 43, 1-(3-Chloro-4-fluoro-phenyl)-4-(2-propyl-imidazol-1-ylmethyl)-1H-[1,2,3]triazole] it is 2.72 µM.
Compound `Cc1nc(CO)n(Cc2cn(-c3ccccc3)nn2)n1` [Example 47, 4-(5-Hydroxymethyl-3-methyl-[1,2,4]triazol-1-ylmethyl)-1-phenyl-1H-[1,2,3]triazole] gave an IC50 at rat NR1/NR2B receptor greater than 10 µM.
Still for that read-out and setting: the figure for `Cc1nc(CO)nn1Cc1cn(-c2ccccc2)nn1` [Example 48, 4-(3-Hydroxymethyl-5-methyl-[1,2,4]triazol-1-ylmethyl)-1-phenyl-1H-[1,2,3]triazole] is greater than 10 µM.
In the case of `Fc1cc(-n2cc(Cn3ccnc3C3CC3)nn2)ccc1Cl` [Example 61, 1-(4-Chloro-3-fluoro-phenyl)-4-(2-cyclopropyl-imidazol-1-ylmethyl)-1H-[1,2,3]triazole], at hERG-receptor, the concentration for half-maximal inhibition (IC50) stood at 3.62 µM.
For the compound `Cc1cc(-n2cc(Cn3ccnc3C3CC3)nn2)ccc1Cl` [Example 65, 1-(4-Chloro-3-methyl-phenyl)-4-(2-cyclopropyl-imidazol-1-ylmethyl)-1H-[1,2,3]triazole], the IC50 at hERG-receptor turned out to be 3.87 µM.
The same measure, in the same setting: the figure for `CC(C)c1nccn1Cc1cn(-c2cccc(OC(F)(F)F)c2)nn1` [Example 73, 4-(2-Isopropyl-imidazol-1-ylmethyl)-1-(3-trifluoromethoxy-phenyl)-1H-[1,2,3]triazole] is 13 µM; for `CS(=O)(=O)c1cccc(-n2cc(Cn3ccnc3CCO)nn2)c1` [Example 79, 4-[2-(2-Hydroxy-ethyl)-imidazol-1-ylmethyl]-1-(3-methanesulfonyl-phenyl)-1H-[1,2,3]triazole] it is greater than 100 µM.
Same read-out and setting: the figure for `CCCCc1nccn1Cc1cn(-c2ccc(F)c(C(F)F)c2)nn1` [Example 86, 1-(3-Difluoromethyl-4-fluoro-phenyl)-4-(2-butyl-imidazol-1-ylmethyl)-1H-[1,2,3]triazole] is 3.24 µM; for `OCCc1nccn1Cc1cn(-c2ccc(Cl)c(OC(F)F)c2)nn1` [Example 98, 1-(4-Chloro-3-difluoromethoxy-phenyl)-4-[2-(2-hydroxy-ethyl)-imidazol-1-ylmethyl]-1H-[1,2,3]triazole] it is 17.1 µM.

Usually IC50 stands for the concentration needed to halve the response being measured. The low end stands for higher potency, the high end for lower potency.
